# Legend:
# MCF-7 = test: In vivo xenograft tumor model; parameters: species or system athymic nude mice; conditions: for tumor size reduced by: MCF-7 xenograft
# Experimental: The data reported for tumor volumes are expressed as mean±SEM. Statistical differences were determined by ANOVA and post test applied was Tukey-Kramer multiple comparison Test. For Tumor to body weight ratio post test applied was Dunnett multiple comparisons test.
# [1] = system: HEK 293 (Human embryonic kidney cell line); test: Cell viability assay (MTT); type: cell-based; conditions: HEK 293, compared with tumor cell lines
# Experimental: The cytotoxic effect of AECHL-1 on the HEK 293, B16F10, PC3, MCF 7 and MDA-MB-231 cells was measured by MTT assay as described in previous studies. The cells were dispensed in 96-well, flat bottom microtiter plates (Becton Dickinson Labware) at a density of 5×10^3 cells each well. […] MTT [3-(4,5-dimethylthiazol-2yl)-2,5-diphenyl tetrazolium bromide] solution (5 mg/ml in PBS) was added at the end of experiment to each well to a final concentration of 0.5 mg/ml, and the cultures were incubated for further 4 h. The resulting formazan crystals were dissolved in 100 μl dimethylsulfoxide (DMSO) and absorbance was measured in a microplate reader at 570 nm (Molecular Devices, Spectra MAX 250). The cytotoxic effect was expressed as a relative percentage of inhibition calculated as follows: Relative inhibition(%)=[(A570 control−A570 AECHL-1)A570 control]×100 Cell Proliferation Assay
# B16F10 cells = test: Cell cycle analysis by flow cytometry; type: cell-based, mouse; conditions: for Phase of cell cycle (% of cells) G1 / Phase of cell cycle (% of cells) G2/M / Phase of cell cycle (% of cells) S / Phase of cell cycle (% of cells) Sub G0: 24 h
# Experimental: The cell cycle analysis of MCF-7, B16F10 MDA-MB-231 and PC3 cells was done by flow cytometry. […] Cells were harvested with trypsin (0.05%), 0.02% EDTA, 0.05% glucose and a single-cell suspension was prepared. Cells were washed and were pelleted by centrifugation (1000×g for 2 min) and fixed in 70% ethanol while vortexing and stored at 4° C. for 1 hour. Fixed cells were pelleted by centrifugation, to remove ethanol and washed with PBS. Cells were re-suspended in PBS containing 50 μg/ml propidium iodide, 0.1 g/L RNase and 1% BSA, incubated for 30 min at 37° C. in the dark, and analyzed with flow cytometry (FACS Vantage-BD Sciences, USA) equipped with an argon laser at 488 nm. The data was analyzed using Cell Quest software for determining the percent population in different phases of cell cycle.
# [2] = mouse, in vivo
# Experimental: Next, we examined the effects of AECHL-1 on the growth of primary tumor allografts and xenografts of B16F10 cells growing in C57B1/6 mice and MCF-7 cells growing in athymic nude mice respectively. […] On this basis, we chose a dose that was 10-20% of this maximum tolerated dose or 50 and 100 μg/kg/day, i.p. or the doses which induced maximum cell death in vitro.
# Cyclin D1 = test: Western blot of tumor homogenates of C57B1/6 mice; type: in vivo, mouse; conditions: tumor of C57 mice
# Experimental: (§1) Prior to immunoblot analysis, tumor segments stored at −80° C. were thawed, washed, minced and homogenized in lysis buffer (120 mM NaCl, 1.0% Triton X 100, 20 mM Tris-HCl, pH 7.5, 10% glycerol, 2 mM EDTA, Protease inhibitor cocktail, Roche) using a Polytron homogenization device. Lysates were incubated at 4° C. for 30 min and centrifuged at 14000 r.p.m. in an Eppendorf micro centrifuge for 15 min. Proteins were isolated in solublised form. Protein concentrations were measured by Bradford assay (Bio-Rad protein assay kit) and stored at −80° C. For immunobloting, 60 μg of total protein from the tumor lysates were used Proteins were resolved in a 10% SDS-polyacrylamide gel, transferred to the immobilon-P […] membrane and blocked with 5% (wt/v) non fat dry milk powder (Sigma) in TBST buffer (10 mM Tris pH 7.6, 150 mM NaCl and 0.1% Tween-20) for three hours at room temperature and then incubated with primary antibodies p53, pp53, p21, Cyclin D1, CDK4 and c-Myc in TBST for 3 h and with actin for 1 hour at room temperature. The membrane was incubated further with the secondary antibody HRP-conjugated (BD Bioscience) at 1:10000 dilution for 1 h at room temperature. Following each antibody incubation, the membrane was washed thoroughly with TBST buffer 3 times. The protein bands were visualized using the enhanced chemiluminescence substrate reaction (Pierce) according to the manufacturer's instructions using X-OMAT AR5 film (Kodak)
# c-Myc = test: Western blot of tumor homogenates of C57B1/6 mice; type: in vivo, mouse; conditions: tumor of C57 mice
# Experimental: as §1
# p53 = test: Western blot of tumor homogenates of C57B1/6 mice; type: in vivo, mouse; conditions: tumor of C57 mice, compared with control
# Experimental: as §1
# CDK4 = test: Western blot of tumor homogenates of C57B1/6 mice; type: in vivo, mouse; conditions: tumor of C57 mice
# Experimental: as §1
# p21 = test: Western blot of tumor homogenates of C57B1/6 mice; type: in vivo, mouse; conditions: tumor of C57 mice
# Experimental: as §1
# pp53 = test: Western blot of tumor homogenates of C57B1/6 mice; type: in vivo, mouse; conditions: tumor of C57 mice
# Experimental: as §1
structure (smiles),measurement,setting,value
C=C1C(OCC)C2(O)OCC34C(=C(C)c5c(C)cc(O)c(OCC)c5C23)OC(=O)C(OC(=O)C(C)(O)CC)C14 (centres unmarked) [AECHL-1],tumor size reduced by,MCF-7; 5 μg/0.05 ml intra-tumor for 10 days,35.72±0.05%
same,tumor size reduced by,MCF-7; 10 μg/0.05 ml intra-tumor for 10 days,28.55±0.06%
same,tumor size reduced by,MCF-7; 20 μg/0.05 ml intra-tumor for 10 days,4.1±0.27%
same,histological examination of tumor tissue,"MCF-7; nude mice, 5 μg",decreased tumor cell density
same,cytotoxicity in normal cells,[1],less cytotoxicity
same,Phase of cell cycle (% of cells) G1,"B16F10 cells; B16F10, 10 μM",56.55%
same,Phase of cell cycle (% of cells) G2/M,"B16F10 cells; B16F10, 10 μM",23.02%
same,Phase of cell cycle (% of cells) S,"B16F10 cells; B16F10, 10 μM",20.46%
same,Phase of cell cycle (% of cells) Sub G0,"B16F10 cells; B16F10, 10 μM",0.39%
same,Phase of cell cycle (% of cells) G1,"B16F10 cells; B16F10, 20 μM",57.67%
same,Phase of cell cycle (% of cells) G2/M,"B16F10 cells; B16F10, 20 μM",23.60%
same,Phase of cell cycle (% of cells) S,"B16F10 cells; B16F10, 20 μM",18.40%
same,Phase of cell cycle (% of cells) Sub G0,"B16F10 cells; B16F10, 20 μM",0.65%
same,Phase of cell cycle (% of cells) G1,"B16F10 cells; B16F10, 40 μM",72.08%
same,Phase of cell cycle (% of cells) G2/M,"B16F10 cells; B16F10, 40 μM",14.73%
same,Phase of cell cycle (% of cells) S,"B16F10 cells; B16F10, 40 μM",11.43%
same,Phase of cell cycle (% of cells) Sub G0,"B16F10 cells; B16F10, 40 μM",2.05%
same,Phase of cell cycle (% of cells) G1,"B16F10 cells; B16F10, 100 μM",64.04%
same,Phase of cell cycle (% of cells) G2/M,"B16F10 cells; B16F10, 100 μM",13.23%
same,Phase of cell cycle (% of cells) S,"B16F10 cells; B16F10, 100 μM",15.41%
same,Phase of cell cycle (% of cells) Sub G0,"B16F10 cells; B16F10, 100 μM",7.82%
same,phase of cell growth arrest,B16F10 cells; B16F10 cells,G0/G1 phase arrest
same,maximum tolerated dose,[2],500 μg/mice
same,expression of cyclin D1,Cyclin D1,reduced the expression
same,expression of c-Myc,c-Myc,downragulation
same,p53 protein expression,p53; 50 μg,increasing expression
same,p53 protein expression,p53; 100 μg,increasing expression
same,expression of CDK4,CDK4,reduced the expression
same,expression of p21,p21; 50 μg,decrease
same,expression of p21,p21; 100 μg,increased
same,phosphorylation of p53 (pp53),pp53; 50 μg,increasing
same,phosphorylation of p53 (pp53),pp53; 100 μg,decreased

# From patent publication US8519163B2, “Anti-tumor activity of AECHL-1, novel triterpenoid isolated from Ailanthus excelsa in vitro and in vivo” (National Centre for Cell Science, priority 2008, dated 2013)
